Calls of active or inactive are those of the source. The rule behind the calls is not given here.
System: CCRIS mutagenicity, Ames/micronucleus/aberration tests
Experiment: CCRIS mutagenicity studies

## COc1ccc(N)cc1
End Point: IN VITRO CHROMOSOMAL ABERRATIONS, Test System: CHINESE HAMSTER OVARY CELLS, Metabolic Activation: NONE
  mutagenic call: active; positive
End Point: IN VITRO CHROMOSOMAL ABERRATIONS, Test System: CHINESE HAMSTER OVARY CELLS, Metabolic Activation: RAT, LIVER, S-9, AROCLOR 1254
  mutagenic call: active; positive
End Point: MORPHOLOGICAL TRANSFORMATION, Test System: SYRIAN HAMSTER EMBRYO CELLS (SHE), Metabolic Activation: NONE
  mutagenic call: active; positive
Test System: AMES SALMONELLA TYPHIMURIUM, Strain/Indicator: TA98, Metabolic Activation: HAMSTER, LIVER, S-9, AROCLOR 1254 (30%), Method: PREINCUBATION
  mutagenic call: inactive; negative
Test System: AMES SALMONELLA TYPHIMURIUM, Strain/Indicator: TA98, Metabolic Activation: HAMSTER, LIVER, S-9, AROCLOR 1254, Method: STANDARD PLATE
  mutagenic call: inactive; negative
Test System: AMES SALMONELLA TYPHIMURIUM, Strain/Indicator: TA98, Metabolic Activation: HAMSTER, LIVER, S-9, Method: STANDARD PLATE
  mutagenic call: inactive; negative
Test System: AMES SALMONELLA TYPHIMURIUM, Strain/Indicator: TA98, Metabolic Activation: MOUSE, LIVER, S-9, AROCLOR 1254, Method: STANDARD PLATE
  mutagenic call: inactive; negative
Test System: AMES SALMONELLA TYPHIMURIUM, Strain/Indicator: TA98, Metabolic Activation: MOUSE, LIVER, S-9, Method: STANDARD PLATE
  mutagenic call: inactive; negative
Test System: AMES SALMONELLA TYPHIMURIUM, Strain/Indicator: TA98, Metabolic Activation: NONE, Method: PREINCUBATION
  mutagenic call: inactive; negative
Test System: AMES SALMONELLA TYPHIMURIUM, Strain/Indicator: TA98, Metabolic Activation: NONE, Method: STANDARD PLATE
  mutagenic call: inactive; negative
Test System: AMES SALMONELLA TYPHIMURIUM, Strain/Indicator: TA98, Metabolic Activation: RAT LIVER S-9, PHENOBARBITAL AND BETA-NAPHTHOFLAVONE, Method: PREINCUBATION
  mutagenic call: inactive; negative
Test System: AMES SALMONELLA TYPHIMURIUM, Strain/Indicator: TA98, Metabolic Activation: RAT, LIVER, S-9, AROCLOR 1254 (30%), Method: PREINCUBATION
  mutagenic call: inactive; negative
Test System: AMES SALMONELLA TYPHIMURIUM, Strain/Indicator: TA98, Metabolic Activation: RAT, LIVER, S-9, AROCLOR 1254, Method: STANDARD PLATE
  mutagenic call: inactive; negative
Test System: AMES SALMONELLA TYPHIMURIUM, Strain/Indicator: TA98, Metabolic Activation: RAT, LIVER, S-9, Method: STANDARD PLATE
  mutagenic call: inactive; negative
Test System: AMES SALMONELLA TYPHIMURIUM, Strain/Indicator: TA100, Metabolic Activation: HAMSTER, LIVER, S-9, AROCLOR 1254 (30%), Method: PREINCUBATION
  mutagenic call: active; positive
Test System: AMES SALMONELLA TYPHIMURIUM, Strain/Indicator: TA100, Metabolic Activation: NONE, Method: PREINCUBATION
  mutagenic call: inactive; negative
Test System: AMES SALMONELLA TYPHIMURIUM, Strain/Indicator: TA100, Metabolic Activation: NONE, Method: STANDARD PLATE
  mutagenic call: inactive; negative
Test System: AMES SALMONELLA TYPHIMURIUM, Strain/Indicator: TA100, Metabolic Activation: RAT LIVER S-9, PHENOBARBITAL AND BETA-NAPHTHOFLAVONE, Method: PREINCUBATION
  mutagenic call: inactive; negative
Test System: AMES SALMONELLA TYPHIMURIUM, Strain/Indicator: TA100, Metabolic Activation: RAT, LIVER, S-9, AROCLOR 1254 (30%), Method: PREINCUBATION
  mutagenic call: inactive; negative
Test System: AMES SALMONELLA TYPHIMURIUM, Strain/Indicator: TA102, Metabolic Activation: NONE, Method: PREINCUBATION
  mutagenic call: inactive; negative
Test System: AMES SALMONELLA TYPHIMURIUM, Strain/Indicator: TA102, Metabolic Activation: NONE, Method: STANDARD PLATE
  mutagenic call: inactive; negative
Test System: AMES SALMONELLA TYPHIMURIUM, Strain/Indicator: TA102, Metabolic Activation: RAT LIVER S-9, PHENOBARBITAL AND BETA-NAPHTHOFLAVONE, Method: PREINCUBATION
  mutagenic call: inactive; negative
Test System: AMES SALMONELLA TYPHIMURIUM, Strain/Indicator: TA104, Metabolic Activation: NONE, Method: PREINCUBATION
  mutagenic call: inactive; negative
Test System: AMES SALMONELLA TYPHIMURIUM, Strain/Indicator: TA104, Metabolic Activation: RAT LIVER S-9, PHENOBARBITAL AND BETA-NAPHTHOFLAVONE, Method: PREINCUBATION
  mutagenic call: inactive; negative
Test System: AMES SALMONELLA TYPHIMURIUM, Strain/Indicator: TA1535, Metabolic Activation: HAMSTER, LIVER, S-9, AROCLOR 1254, Method: STANDARD PLATE
  mutagenic call: inactive; negative
Test System: AMES SALMONELLA TYPHIMURIUM, Strain/Indicator: TA1535, Metabolic Activation: HAMSTER, LIVER, S-9, Method: STANDARD PLATE
  mutagenic call: inactive; negative
Test System: AMES SALMONELLA TYPHIMURIUM, Strain/Indicator: TA1535, Metabolic Activation: MOUSE, LIVER, S-9, AROCLOR 1254, Method: STANDARD PLATE
  mutagenic call: inactive; negative
Test System: AMES SALMONELLA TYPHIMURIUM, Strain/Indicator: TA1535, Metabolic Activation: MOUSE, LIVER, S-9, Method: STANDARD PLATE
  mutagenic call: inactive; negative
Test System: AMES SALMONELLA TYPHIMURIUM, Strain/Indicator: TA1535, Metabolic Activation: NONE, Method: PREINCUBATION
  mutagenic call: inactive; negative
Test System: AMES SALMONELLA TYPHIMURIUM, Strain/Indicator: TA1535, Metabolic Activation: NONE, Method: STANDARD PLATE
  mutagenic call: inactive; negative
Test System: AMES SALMONELLA TYPHIMURIUM, Strain/Indicator: TA1535, Metabolic Activation: RAT LIVER S-9, PHENOBARBITAL AND BETA-NAPHTHOFLAVONE, Method: PREINCUBATION
  mutagenic call: inactive; negative
Test System: AMES SALMONELLA TYPHIMURIUM, Strain/Indicator: TA1535, Metabolic Activation: RAT, LIVER, S-9, AROCLOR 1254, Method: STANDARD PLATE
  mutagenic call: inactive; negative
Test System: AMES SALMONELLA TYPHIMURIUM, Strain/Indicator: TA1535, Metabolic Activation: RAT, LIVER, S-9, Method: STANDARD PLATE
  mutagenic call: inactive; negative
Test System: AMES SALMONELLA TYPHIMURIUM, Strain/Indicator: TA1537, Metabolic Activation: HAMSTER, LIVER, S-9, AROCLOR 1254, Method: STANDARD PLATE
  mutagenic call: inactive; negative
Test System: AMES SALMONELLA TYPHIMURIUM, Strain/Indicator: TA1537, Metabolic Activation: HAMSTER, LIVER, S-9, Method: STANDARD PLATE
  mutagenic call: inactive; negative
Test System: AMES SALMONELLA TYPHIMURIUM, Strain/Indicator: TA1537, Metabolic Activation: MOUSE, LIVER, S-9, AROCLOR 1254, Method: STANDARD PLATE
  mutagenic call: inactive; negative
Test System: AMES SALMONELLA TYPHIMURIUM, Strain/Indicator: TA1537, Metabolic Activation: NONE, Method: PREINCUBATION
  mutagenic call: inactive; negative
Test System: AMES SALMONELLA TYPHIMURIUM, Strain/Indicator: TA1537, Metabolic Activation: NONE, Method: STANDARD PLATE
  mutagenic call: inactive; negative
Test System: AMES SALMONELLA TYPHIMURIUM, Strain/Indicator: TA1537, Metabolic Activation: RAT LIVER S-9, PHENOBARBITAL AND BETA-NAPHTHOFLAVONE, Method: PREINCUBATION
  mutagenic call: inactive; negative
Test System: AMES SALMONELLA TYPHIMURIUM, Strain/Indicator: TA1537, Metabolic Activation: RAT, LIVER, S-9, AROCLOR 1254, Method: STANDARD PLATE
  mutagenic call: inactive; negative
Test System: AMES SALMONELLA TYPHIMURIUM, Strain/Indicator: TA1537, Metabolic Activation: RAT, LIVER, S-9, Method: STANDARD PLATE
  mutagenic call: inactive; negative
Test System: AMES SALMONELLA TYPHIMURIUM, Strain/Indicator: TA1538, Metabolic Activation: HAMSTER, LIVER, S-9, AROCLOR 1254, Method: STANDARD PLATE
  mutagenic call: inactive; negative
Test System: AMES SALMONELLA TYPHIMURIUM, Strain/Indicator: TA1538, Metabolic Activation: HAMSTER, LIVER, S-9, Method: STANDARD PLATE
  mutagenic call: inactive; negative
Test System: AMES SALMONELLA TYPHIMURIUM, Strain/Indicator: TA1538, Metabolic Activation: MOUSE, LIVER, S-9, AROCLOR 1254, Method: STANDARD PLATE
  mutagenic call: inactive; negative
Test System: AMES SALMONELLA TYPHIMURIUM, Strain/Indicator: TA1538, Metabolic Activation: MOUSE, LIVER, S-9, Method: STANDARD PLATE
  mutagenic call: inactive; negative
Test System: AMES SALMONELLA TYPHIMURIUM, Strain/Indicator: TA1538, Metabolic Activation: NONE, Method: STANDARD PLATE
  mutagenic call: inactive; negative
Test System: AMES SALMONELLA TYPHIMURIUM, Strain/Indicator: TA1538, Metabolic Activation: RAT, LIVER, S-9, AROCLOR 1254, Method: STANDARD PLATE
  mutagenic call: inactive; negative
Test System: AMES SALMONELLA TYPHIMURIUM, Strain/Indicator: TA1538, Metabolic Activation: RAT, LIVER, S-9, Method: STANDARD PLATE
  mutagenic call: inactive; negative
Test System: AMES SALMONELLA TYPHIMURIUM, Strain/Indicator: TA2638, Metabolic Activation: NONE, Method: STANDARD PLATE
  mutagenic call: inactive; negative
Test System: AMES SALMONELLA TYPHIMURIUM, Strain/Indicator: YG1029, Metabolic Activation: HAMSTER, LIVER, S-9, Method: PREINCUBATION
  mutagenic call: active; positive
Test System: AMES SALMONELLA TYPHIMURIUM, Strain/Indicator: YG1029, Metabolic Activation: NONE, Method: PREINCUBATION
  mutagenic call: active; positive
Test System: AMES SALMONELLA TYPHIMURIUM, Strain/Indicator: YG1029, Metabolic Activation: RAT, SEMINAL VESICLE, MICROSOMES, Method: PREINCUBATION
  mutagenic call: active; positive
Test System: E. COLI, Strain/Indicator: WP2 (PKM101), Metabolic Activation: NONE, Method: STANDARD PLATE
  mutagenic call: inactive; negative
Test System: E. COLI, Strain/Indicator: WP2 UVRA (PKM101), Metabolic Activation: NONE, Method: STANDARD PLATE
  mutagenic call: active; positive
Test System: E. COLI, Strain/Indicator: WP2 UVRA, Metabolic Activation: HAMSTER, LIVER, S-9, AROCLOR 1254, Method: STANDARD PLATE
  mutagenic call: inactive; negative
Test System: E. COLI, Strain/Indicator: WP2 UVRA, Metabolic Activation: HAMSTER, LIVER, S-9, Method: STANDARD PLATE
  mutagenic call: inactive; negative
Test System: E. COLI, Strain/Indicator: WP2 UVRA, Metabolic Activation: MOUSE, LIVER, S-9, AROCLOR 1254, Method: STANDARD PLATE
  mutagenic call: inactive; negative
Test System: E. COLI, Strain/Indicator: WP2 UVRA, Metabolic Activation: MOUSE, LIVER, S-9, Method: STANDARD PLATE
  mutagenic call: inactive; negative
Test System: E. COLI, Strain/Indicator: WP2 UVRA, Metabolic Activation: NONE, Method: STANDARD PLATE
  mutagenic call: inactive; negative
Test System: E. COLI, Strain/Indicator: WP2 UVRA, Metabolic Activation: RAT, LIVER, S-9, AROCLOR 1254, Method: STANDARD PLATE
  mutagenic call: inactive; negative
Test System: E. COLI, Strain/Indicator: WP2 UVRA, Metabolic Activation: RAT, LIVER, S-9, Method: STANDARD PLATE
  mutagenic call: inactive; negative
Test System: E.COLI, Strain/Indicator: WP2UVRA/PKM101, Metabolic Activation: RAT LIVER S-9, PHENOBARBITAL AND BETA-NAPHTHOFLAVONE, Method: PREINCUBATION
  mutagenic call: inactive; negative
Test System: E.COLI, Strain/Indicator: WP2UVRA, Metabolic Activation: NONE, Method: PREINCUBATION
  mutagenic call: inactive; negative
Test System: MOUSE LYMPHOMA, Strain/Indicator: L5178Y (TK+/TK-), Metabolic Activation: NONE, Method: SUSPENSION/PLATE
  mutagenic call: active; positive
Test System: MOUSE LYMPHOMA, Strain/Indicator: L5178Y (TK+/TK-), Metabolic Activation: RAT, LIVER, S-9, AROCLOR 1254, Method: SUSPENSION/PLATE
  mutagenic call: active; positive
